In PubChem BioAssay (NCI):
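Following 48 hours of exposure in 96-well plates, responses at five concentrations were used to interpolate endpoints linearly. At the GI50, growth is halved. TGI is the concentration that stops growth completely.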

Columns and labels:
Assay in all cases: NCI anticancer screen, dose series, 48 h
SW-620 colon = tested on: SW-620 colon
SF-295 CNS = tested on: SF-295 CNS
MALME-3M melanoma = tested on: MALME-3M melanoma
SN12C renal = tested on: SN12C renal
ACHN renal = tested on: ACHN renal
KM12 colon = tested on: KM12 colon
UO-31 renal = tested on: UO-31 renal
M14 melanoma = tested on: M14 melanoma
UACC-257 melanoma = tested on: UACC-257 melanoma
HCC-2998 colon = tested on: HCC-2998 colon
A498 renal = tested on: A498 renal
PC-3 prostate = tested on: PC-3 prostate
HS 578T breast = tested on: HS 578T breast

| Structure (SMILES) | TGI (SW-620 colon) | TGI (SF-295 CNS) | TGI (MALME-3M melanoma) | TGI (SN12C renal) | TGI (ACHN renal) | TGI (KM12 colon) | TGI (UO-31 renal) | TGI (M14 melanoma) | TGI (UACC-257 melanoma) | TGI (HCC-2998 colon) | TGI (A498 renal) | TGI (PC-3 prostate) | GI50 (UACC-257 melanoma) | GI50 (UO-31 renal) | TGI (HS 578T breast) |
| --- | --- | --- | --- | --- | --- | --- | --- | --- | --- | --- | --- | --- | --- | --- | --- |
| S=c1ncc2c([nH]1)C1c3ccccc3C2c2ccccc21 | > 100 µM | > 100 µM | > 100 µM | > 100 µM | > 100 µM | > 100 µM | > 100 µM | > 100 µM | – | – | – | – | – | – | – |
| Cc1ccc2c(=O)cc(-c3ccc(C)s3)[nH]c2n1 | – | 2.79 µM | 53 µM | > 55.9 µM | > 69 µM | 15.9 µM | 1.43 µM | 55.9 µM | > 100 µM | 9.82 µM | > 70.9 µM | > 44.9 µM | – | – | – |
| Cc1cccc2sc(-c3ccc(O)cc3)nc12 | 23.7 µM | 29.1 µM | 32.8 µM | 34.3 µM | 33 µM | 31.6 µM | 26.4 µM | 28.5 µM | 33.1 µM | – | 20.4 µM | 31.7 µM | – | – | – |
| CCCCCc1c(CCCC)c(=O)[nH]c2nc(NC(=O)CCCC)ccc12 | > 100 µM | > 100 µM | > 100 µM | > 100 µM | > 100 µM | > 100 µM | > 100 µM | > 100 µM | > 100 µM | > 100 µM | > 100 µM | > 100 µM | – | – | – |
| Cn1c2ccccc2c(=O)c2c(O)cc3c(c21)C=CC(C)(C)O3 | > 25 µM | > 25 µM | > 25 µM | > 25 µM | – | > 25 µM | > 25 µM | – | > 25 µM | > 25 µM | > 25 µM | – | – | – | – |
| C/C(=N\NC(=O)c1ccccc1O)c1cccc(/C(C)=N/NC(=O)c2ccccc2O)n1.O=S(=O)([O-])[O-].[Fe+2] | > 100 µM | > 100 µM | > 100 µM | – | > 100 µM | > 100 µM | > 100 µM | > 100 µM | > 100 µM | > 100 µM | – | – | > 100 µM | > 100 µM | – |
| CCOC(=O)c1c(NC(=S)Nc2ccc(Cl)cc2)sc2c1CCN(C)C2 | – | > 100 µM | – | > 100 µM | > 100 µM | > 100 µM | > 100 µM | > 100 µM | > 100 µM | – | > 100 µM | > 100 µM | – | – | > 100 µM |
| CCOc1ccccc1N=Nc1c(-c2ccccc2)nn(C(=O)CC(=O)Nc2cccc(C)c2)c1-c1ccccc1 | > 100 µM | > 100 µM | > 100 µM | > 100 µM | > 100 µM | > 100 µM | > 100 µM | > 100 µM | > 100 µM | > 100 µM | – | – | – | – | – |
| CC(=O)NC(NCCN)(c1ccccc1)c1ccccc1 | > 100 µM | > 100 µM | > 100 µM | > 100 µM | > 100 µM | > 100 µM | > 100 µM | > 100 µM | > 100 µM | > 100 µM | > 100 µM | – | – | – | > 100 µM |
| C/C=C1\CN2CCc3c([nH]c4ccccc34)C2CC1CCO (stereo unspecified) | > 100 µM | > 100 µM | > 100 µM | > 100 µM | > 100 µM | > 100 µM | > 100 µM | > 100 µM | > 100 µM | > 100 µM | > 100 µM | – | – | – | – |
| O=C1Nc2nccnc2C(=O)N2CCC[C@@H]12 | > 100 µM | > 100 µM | > 100 µM | > 100 µM | > 100 µM | > 100 µM | > 100 µM | > 100 µM | > 100 µM | > 100 µM | – | > 100 µM | – | – | > 100 µM |
| Cc1cc(=O)oc2cc(OCC(O)COC(C)C)ccc12 (stereo unspecified) | > 100 µM | > 100 µM | > 100 µM | > 100 µM | > 100 µM | > 100 µM | > 100 µM | > 100 µM | > 100 µM | > 100 µM | – | > 100 µM | – | – | > 100 µM |
| Cc1cc2nc3ccccc3n2c2nc(N)ccc12 | > 100 µM | 71.5 µM | – | > 100 µM | > 100 µM | > 100 µM | > 100 µM | > 100 µM | > 100 µM | > 100 µM | > 100 µM | > 100 µM | – | – | > 100 µM |
| COc1cccc(/C=C2\S/C(=N/Nc3nc(C)c(C)s3)NC2=O)c1O | > 100 µM | > 100 µM | – | > 100 µM | > 100 µM | > 100 µM | > 100 µM | > 100 µM | > 100 µM | > 100 µM | > 100 µM | – | – | – | – |
| CCOP(=O)(OCC)C(NC(=O)C(C(F)(F)F)C(F)(F)F)c1ccccc1 (stereo unspecified) | > 100 µM | > 100 µM | > 100 µM | > 100 µM | > 100 µM | > 100 µM | > 100 µM | > 100 µM | > 100 µM | > 100 µM | – | > 100 µM | – | – | > 100 µM |
| COc1cc(C2(c3ncc[nH]3)SSSCC2O)ccc1O (stereo unspecified) | > 100 µM | > 100 µM | – | > 100 µM | – | > 100 µM | > 100 µM | – | 28.5 µM | 77 µM | > 100 µM | – | – | – | – |
| C=C1C(=O)O[C@H]2C1C[C@@H](OC(C)=O)/C(C)=C/CC[C@@]1(C)O[C@H]21 (stereo partly specified) | 20.4 µM | 50.9 µM | 18.7 µM | 29.2 µM | 15.2 µM | 44.2 µM | 17 µM | 16.1 µM | 19.6 µM | 27.9 µM | – | 31.3 µM | – | – | 86 µM |
| CC(=O)OCC1OC(n2c3c(c(-c4ccc(Cl)cc4)c(C#N)c2=S)CCCC3)C(OC(C)=O)C(OC(C)=O)C1OC(C)=O (stereo unspecified) | – | > 100 µM | > 100 µM | > 100 µM | > 100 µM | > 100 µM | > 100 µM | > 100 µM | > 100 µM | > 100 µM | 79.3 µM | 69.1 µM | – | – | – |
| Nc1ncnc2c1ncn2C1CCC(CP(=O)(O)O)C1 (stereo unspecified) | > 100 µM | > 100 µM | > 100 µM | > 100 µM | > 100 µM | > 100 µM | > 100 µM | > 100 µM | > 100 µM | > 100 µM | – | > 100 µM | – | – | > 100 µM |
